Assay [1] has as its target T1, Human immunodeficiency virus type 1 protease (Human immunodeficiency virus 1, UniProt Q72874). The assay is described as follows: (§1) Binding activity against HIV-1 Protease.
Assay [2] deals with T1, Human immunodeficiency virus type 1 protease. The assay is described as §1. The source holds these as a separate data set.

Consider nine compounds from ChEMBL document CHEMBL1125803 (J Med Chem, 1991).

In general, IC50 refers to the concentration needed to halve the response being measured. A low value points to greater potency in that assay.

Numbered stars: 1 amine (or outer) side, 2 acyl side, 3 side chain; on linkers, the order of the positions; unused ones are H or OH. Square brackets hold non-standard residues; d marks the D form. Peptide text beside a SMILES is read from it. X1 = O=C([C@@H]1CCCN1CC(O)[C@H](Cc1ccccc1)N[*:1])[*:2]

As for `CC(C)(C)NC(=O)C1CC2CCCCC2CN1C[C@H](O)[C@H](Cc1ccccc1)NC(=O)[C@H](CC(N)=O)NC(=O)OCc1ccccc1` (stereo partly drawn), the IC50 in assay [1] and in assay [2] was over 100 nM in each case.

For the compound `CC(C)(C)OC(=O)[C@@H]1CCCN1C[C@@H](O)[C@H](Cc1ccccc1)NC(=O)[C@H](CC(N)=O)NC(=O)OCc1ccccc1`, the IC50 in assay [1] and in assay [2] was 140 nM each time.

In the case of `CC(C)(C)NC(=O)C1CC2CCCCC2CN1C[C@@H](O)[C@H](Cc1ccccc1)NC(=O)[C@H](CC(N)=O)NC(=O)OCc1ccccc1` (stereo partly drawn), the IC50 in assay [1] and in assay [2] was under 2.7 nM in each case.

Regarding `CC[C@H](C)[C@H](NC(=O)C1CC2CCCCC2CN1C[C@H](O)[C@H](Cc1ccccc1)NC(=O)[C@H](CC(N)=O)NC(=O)OCc1ccccc1)C(=O)N[C@H](C(=O)OC)C(C)C` (stereo partly drawn), the IC50 in assay [1] and in assay [2] was over 100 nM each time.

For `CC(C)(C)OC(=O)[C@@H]1CCCN1C[C@H](O)[C@H](Cc1ccccc1)NC(=O)[C@H](CC(N)=O)NC(=O)OCc1ccccc1`, the IC50 in assay [1] and in assay [2] was 300 nM throughout.

Take `CC[C@H](C)[C@H](NC(=O)[C@@H]1CCCN1C[C@H](O)[C@H](Cc1ccccc1)NC(=O)[C@H](CC(N)=O)NC(=O)OCc1ccccc1)C(=O)N[C@H](C(=O)OC)C(C)C`: the IC50 in assay [1] and in assay [2] was 13 nM each time.

With `CC[C@H](C)[C@H](NC(=O)C1CC2CCCCC2CN1C[C@@H](O)[C@H](Cc1ccccc1)NC(=O)[C@H](CC(N)=O)NC(=O)OCc1ccccc1)C(=O)N[C@H](C(=O)OC)C(C)C` (stereo partly drawn), the 50% inhibitory concentration (IC50) in assay [1] and in assay [2] was over 100 nM in each case.

As for `CC[C@H](C)[C@H](NC(=O)[C@@H]1CCCN1C[C@@H](O)[C@H](Cc1ccccc1)NC(=O)[C@H](CC(N)=O)NC(=O)OCc1ccccc1)C(=O)N[C@H](C(=O)OC)C(C)C`, the IC50 in assay [1] and in assay [2] was over 100 nM each time.

`CC[C@H](C)[C@H](NC(=O)[C@@H]1CCCN1CC(O)[C@H](Cc1ccccc1)NC(=O)[C@H](CC(N)=O)NC(=O)[C@H](CC(C)C)NC(=O)[C@H](CO)NC(C)=O)C(=O)OC` (stereo partly drawn) (Ac-SLN[X1]I-OMe): the IC50 in assay [1] and in assay [2] was 420 nM each time.
